# Data as given in the supplement of paper PMC13207355.
# ± gives the standard deviation of the averaged measurements.
# Experiments:
# Settings in all cases: exposure time: 72 h
# E13 [1] = patient-derived glioblastoma stem cells of classical subtype; assay: surviving fraction (nuclei count normalised to DMSO); higher = more cells surviving (less toxic)
# E21 [2] = patient-derived glioblastoma stem cells of mesenchymal subtype; assay: as above
# E28 [3] = patient-derived glioblastoma stem cells of classical subtype; assay: as above
# E31 [4] = patient-derived glioblastoma stem cells of proneural subtype; assay: as above
# E34 [5] = patient-derived glioblastoma stem cells of proneural subtype; assay: as above
# E57 [6] = patient-derived glioblastoma stem cells of mesenchymal subtype; assay: as above
# FT3469 [7] = normal neural stem cell line; assay: as above
# E13 [8] = assay: phenotypic distance (Euclidean, principal components) from DMSO controls (arbitrary units); higher = stronger morphological change
# E21 [9] = assay: as above
# E28 [10] = assay: as above
# E31 [11] = assay: as above
# E34 [12] = assay: as above
# E57 [13] = assay: as above
# FT3469 [14] = assay: as above
# 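Throughout, for phenotypic distance (Euclidean, principal components) from DMSO controls: cell Painting imaging in 384-well plates, CellProfiler features reduced to at least 20 principal components, Euclidean distance versus same-plate DMSO vehicle wells (0.1% v/v), median over six images per well.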
# 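Throughout, for surviving fraction (nuclei count normalised to DMSO): nuclei counted by high-content imaging of Hoechst-stained cells in laminin-coated 384-well plates, relative to 0.1% DMSO vehicle wells, with staurosporine as cell-death control.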
compound,measurement,setting,value
O=C(/C=C/c1ccc([N+](=O)[O-])cc1)/C=C1/C(=O)Nc2ccc(F)cc21 [APIO-EE-07],surviving fraction,E13 [1]; 2.7 nM,0.978 ± 0.23
same,surviving fraction,E13 [1]; 8.2 nM,0.955 ± 0.13
same,surviving fraction,E13 [1]; 24.7 nM,0.964 ± 0.037
same,surviving fraction,E13 [1]; 74.1 nM,1.0673 ± 0.00064
same,surviving fraction,E13 [1]; 222.2 nM,0.994 ± 0.06
same,surviving fraction,E13 [1]; 666.7 nM,0.9741 ± 0.0051
same,surviving fraction,E13 [1]; 2000 nM,0.841 ± 0.09
same,surviving fraction,E21 [2]; 2.7 nM,0.996 ± 0.036
same,surviving fraction,E21 [2]; 8.2 nM,0.929 ± 0.052
same,surviving fraction,E21 [2]; 24.7 nM,1.04 ± 0.019
same,surviving fraction,E21 [2]; 74.1 nM,0.991 ± 0.0045
same,surviving fraction,E21 [2]; 222.2 nM,0.989 ± 0.067
same,surviving fraction,E21 [2]; 666.7 nM,1.03 ± 0.03
same,surviving fraction,E21 [2]; 2000 nM,0.642 ± 0.13
same,surviving fraction,E28 [3]; 2.7 nM,1.1 ± 0.048
same,surviving fraction,E28 [3]; 8.2 nM,0.992
same,surviving fraction,E28 [3]; 24.7 nM,1 ± 0.085
same,surviving fraction,E28 [3]; 74.1 nM,1.04 ± 0.13
same,surviving fraction,E28 [3]; 222.2 nM,0.944 ± 0.04
same,surviving fraction,E28 [3]; 666.7 nM,1.054 ± 0.0027
same,surviving fraction,E28 [3]; 2000 nM,0.293 ± 0.091
same,surviving fraction,E31 [4]; 2.7 nM,0.971 ± 0.026
same,surviving fraction,E31 [4]; 8.2 nM,1.07 ± 0.076
same,surviving fraction,E31 [4]; 24.7 nM,0.973 ± 0.047
same,surviving fraction,E31 [4]; 74.1 nM,0.943 ± 0.18
same,surviving fraction,E31 [4]; 222.2 nM,0.958 ± 0.041
same,surviving fraction,E31 [4]; 666.7 nM,0.951 ± 0.042
same,surviving fraction,E31 [4]; 2000 nM,0.448 ± 0.011
same,surviving fraction,E34 [5]; 2.7 nM,0.95 ± 0.023
same,surviving fraction,E34 [5]; 8.2 nM,0.991 ± 0.17
same,surviving fraction,E34 [5]; 24.7 nM,1 ± 0.015
same,surviving fraction,E34 [5]; 74.1 nM,0.971 ± 0.024
same,surviving fraction,E34 [5]; 222.2 nM,0.979 ± 0.015
same,surviving fraction,E34 [5]; 666.7 nM,0.87 ± 0.045
same,surviving fraction,E34 [5]; 2000 nM,0.731 ± 0.13
same,surviving fraction,E57 [6]; 2.7 nM,0.99 ± 0.053
same,surviving fraction,E57 [6]; 8.2 nM,1.01 ± 0.055
same,surviving fraction,E57 [6]; 24.7 nM,1.03 ± 0.037
same,surviving fraction,E57 [6]; 74.1 nM,1.04 ± 0.012
same,surviving fraction,E57 [6]; 222.2 nM,0.999 ± 0.013
same,surviving fraction,E57 [6]; 666.7 nM,1.02 ± 0.033
same,surviving fraction,E57 [6]; 2000 nM,0.791 ± 0.17
same,surviving fraction,FT3469 [7]; 2.7 nM,0.932 ± 0.011
same,surviving fraction,FT3469 [7]; 8.2 nM,1.01 ± 0.034
same,surviving fraction,FT3469 [7]; 24.7 nM,1.04 ± 0.18
same,surviving fraction,FT3469 [7]; 74.1 nM,1.09 ± 0.055
same,surviving fraction,FT3469 [7]; 222.2 nM,0.975 ± 0.045
same,surviving fraction,FT3469 [7]; 666.7 nM,0.982 ± 0.02
same,surviving fraction,FT3469 [7]; 2000 nM,0.775 ± 0.014
same,phenotypic distance,E13 [8]; 2.7 nM,0.638 ± 0.027
same,phenotypic distance,E13 [8]; 8.2 nM,0.674 ± 0.096
same,phenotypic distance,E13 [8]; 24.7 nM,0.47 ± 0.16
same,phenotypic distance,E13 [8]; 74.1 nM,0.494 ± 0.022
same,phenotypic distance,E13 [8]; 222.2 nM,0.491 ± 0.29
same,phenotypic distance,E13 [8]; 666.7 nM,0.644 ± 0.16
same,phenotypic distance,E13 [8]; 2000 nM,0.888 ± 0.24
same,phenotypic distance,E21 [9]; 2.7 nM,0.833 ± 0.17
same,phenotypic distance,E21 [9]; 8.2 nM,0.648 ± 0.027
same,phenotypic distance,E21 [9]; 24.7 nM,0.526 ± 0.4
same,phenotypic distance,E21 [9]; 74.1 nM,2.82 ± 3.1
same,phenotypic distance,E21 [9]; 222.2 nM,0.86 ± 0.57
same,phenotypic distance,E21 [9]; 666.7 nM,0.927 ± 0.2
same,phenotypic distance,E21 [9]; 2000 nM,2.33 ± 0.96
same,phenotypic distance,E28 [10]; 2.7 nM,0.693 ± 0.21
same,phenotypic distance,E28 [10]; 8.2 nM,0.629 ± 0.25
same,phenotypic distance,E28 [10]; 24.7 nM,0.459 ± 0.0068
same,phenotypic distance,E28 [10]; 74.1 nM,0.507 ± 0.076
same,phenotypic distance,E28 [10]; 222.2 nM,1.59 ± 1.6
same,phenotypic distance,E28 [10]; 666.7 nM,0.58 ± 0.064
same,phenotypic distance,E28 [10]; 2000 nM,3.56 ± 0.092
same,phenotypic distance,E31 [11]; 2.7 nM,0.66 ± 0.099
same,phenotypic distance,E31 [11]; 8.2 nM,0.527 ± 0.1
same,phenotypic distance,E31 [11]; 24.7 nM,0.585 ± 0.22
same,phenotypic distance,E31 [11]; 74.1 nM,0.697 ± 0.057
same,phenotypic distance,E31 [11]; 222.2 nM,0.744 ± 0.16
same,phenotypic distance,E31 [11]; 666.7 nM,0.876 ± 0.065
same,phenotypic distance,E31 [11]; 2000 nM,1.95 ± 0.25
same,phenotypic distance,E34 [12]; 2.7 nM,0.787 ± 0.065
same,phenotypic distance,E34 [12]; 8.2 nM,0.702 ± 0.28
same,phenotypic distance,E34 [12]; 24.7 nM,0.648 ± 0.067
same,phenotypic distance,E34 [12]; 74.1 nM,0.775 ± 0.36
same,phenotypic distance,E34 [12]; 222.2 nM,0.511 ± 0.098
same,phenotypic distance,E34 [12]; 666.7 nM,1.19 ± 0.3
same,phenotypic distance,E34 [12]; 2000 nM,1.13 ± 0.095
same,phenotypic distance,E57 [13]; 2.7 nM,0.81 ± 0.045
same,phenotypic distance,E57 [13]; 8.2 nM,0.581 ± 0.15
same,phenotypic distance,E57 [13]; 24.7 nM,0.418 ± 0.012
same,phenotypic distance,E57 [13]; 74.1 nM,0.557 ± 0.023
same,phenotypic distance,E57 [13]; 222.2 nM,0.584 ± 0.069
same,phenotypic distance,E57 [13]; 666.7 nM,0.739 ± 0.13
same,phenotypic distance,E57 [13]; 2000 nM,2.46 ± 0.7
same,phenotypic distance,FT3469 [14]; 2.7 nM,0.776 ± 0.027
same,phenotypic distance,FT3469 [14]; 8.2 nM,0.699 ± 0.17
same,phenotypic distance,FT3469 [14]; 24.7 nM,2.24 ± 1.8
same,phenotypic distance,FT3469 [14]; 74.1 nM,1.29 ± 0.23
same,phenotypic distance,FT3469 [14]; 222.2 nM,0.569 ± 0.076
same,phenotypic distance,FT3469 [14]; 666.7 nM,0.6 ± 0.36
same,phenotypic distance,FT3469 [14]; 2000 nM,2.12 ± 1.5
